Legend:
[1] = test system: patient-derived BT3 glioma cells; assay: Ex vivo autoradiography of brain cryosections, orthotopic glioma; assay type: in vivo, BALB/cOlaHsd-Foxn1^nu mouse; conditions: for Autoradiography TBRmean: n = 12 brain sections
Excerpt: (§1) See Suppl. Materials in ESM for detailed descriptions of biodistribution, stability, cryosectioning, autoradiography, and histology.

rat BT4C glioma cells [2] = assay: Patlak plot (irreversible uptake model), subcutaneous model; assay type: in vivo, Foxn1^nu/nu mouse; conditions: for Patlak Ic (AB) y intercept: AB input; for Patlak Ic (PC) y intercept: PC input
Description: (§2) Image analysis was performed using CARIMAS software published and freely distributed by the Turku PET Center (http://turkupetcentre.fi/carimas/). CT scans were used as rough anatomical reference while tumor regions of interest (ROI) were hand-drawn based upon observed spikes of radioactivity in the PET images at locations correlating with recorded tumor grafts. Control muscle ROIs were drawn on the side opposite to the tumor in the leg flank muscle (based on CT) while the blood ROI was drawn based upon heart anatomical location and observed PET image radioactivity spike during the initial 20 s of imaging in the left ventricle. Standardized uptake values (SUV) were calculated with respect to ROI volume, mean and max tumor radioactivity, total injected radioactivity dose (corrected for tail, cannula, and syringe residual radioactivity), and animal weight, and were additionally presented as tumor-to-background ratio (TBR, tumor-to-healthy brain region for intracranial gliomas and tumor-to-muscle for subcutaneous gliomas) as defined by recent glioma research literature standards. Mean and maximum TBR values were reported as ROI radioactivity per volume divided by mean background radioactivity per volume. The blood radioactivity SUV and gender-specific metabolite-corrected blood radioactivity SUV were then applied to multiple pharmacokinetic models to characterize the flux of the tracer (further described in the “Modeling” section).
(§3) Using the heart’s left ventricle ROI from the PET data as an uncorrected radioactivity level input and the bioavailable parent-tracer fraction (results: Eqs. 3 and 4 applied to the uncorrected input) as the corrected input, multiple models were investigated to characterize the tissue uptake dynamics. Two-compartment modeling and Logan, Patlak, and Yokoi plots were used to separately model the pharmacokinetics for the gliomas (both subcutaneous and orthotopic loci) and their respective control tissues (healthy muscle and healthy brain, respectively). Where indicated, means plus/minus standard deviations are reported. Difference in parameters for uncorrected versus correct and target tissue versus their respective control regions were tested with students’ paired t tests with P values lower than 0.05 being considered significant.

[3] = test system: patient-derived BT3 glioma cells; assay: Patlak plot (irreversible uptake model), orthotopic model; assay type: in vivo, BALB/cOlaHsd-Foxn1^nu mouse; conditions: for Patlak Ic (AB) y intercept: AB input; for Patlak Ic (PC) y intercept: PC input
Description: as §2, §3

rat BT4C glioma cells [4] = assay: Logan plot (reversible uptake model), subcutaneous model; assay type: in vivo, Foxn1^nu/nu mouse; conditions: for AB distribution volume: arterial blood input; for PC distribution volume: plasma-corrected input; for Logan DV (AB) distribution volume / Logan Ic (AB) y intercept: AB input; for Logan DV (PC) distribution volume / Logan IC (PC) y intercept: PC input
Description: as §2, §3

rat BT4C glioma cells [5] = assay: Yokoi plot, subcutaneous model; assay type: in vivo, Foxn1^nu/nu mouse; conditions: for Yokoi K1 (AB) plasma to tissue transport rate / Yokoi K1/k2 (AB) binding potential / Yokoi k2 (AB) tissue to plasma transport rate: AB input; for Yokoi K1 (PC) plasma to tissue transport rate / Yokoi K1/k2 (PC) binding potential / Yokoi k2 (PC) tissue to plasma transport rate: PC input
Description: as §2, §3

rat BT4C glioma cells [6] = assay: Ex vivo biodistribution; assay type: in vivo, Foxn1^nu/nu mouse; conditions: higher than subcutaneous tumor
Excerpt: as §1
Ex Vivo Biodistribution Results
The tracer accumulated highly in the pancreatic tissue with notable high uptake in the skull (bo ne) and femur (bone + marrow). The bone uptake is classically characteristic of defluorination occurring which leads to absorption into the osseous tissue. […]
adipose tissue likely due to the comparative increased number of metabolic processes which encompass its cell type characteristics.
Supplemental Fig. 11. Ex vivo biodistribution averages of [ 18F]FGln uptake 63 minutes post-injection in subcutaneously xenografted BT4C tumor bearing Foxn1 nu/nu mice (female, n = 5) and control C57BL/6JRj […]

[7] = Bone (femoral condyle) average (n = 6)

Autoradiography TBRmean ([1]; Subject A): 8.9 ± 1.1 (range 7.2–10.5) | Autoradiography TBRmean ([1]; Subject B): 9.9 ± 0.7 (range 8.9–11.0) | Autoradiography TBRmean ([1]; Subject C): 7.8 ± 0.4 (range 7.3–8.4) | Autoradiography TBR, average ([1]; n = 3 subjects, 36 sections): 8.9 ± 1.1 | Patlak Ic (AB) y intercept (rat BT4C glioma cells [2]; [7]): 0.5752 ± 0.1597 | Patlak Ic (PC) y intercept (rat BT4C glioma cells [2]; [7]): 0.3705 ± 0.2561 | Patlak Ic (AB) y intercept (rat BT4C glioma cells [2]; Flank muscle average (n = 6)): 0.5790 ± 0.1835 | Patlak Ic (PC) y intercept (rat BT4C glioma cells [2]; Flank muscle average (n = 6)): 0.8154 ± 0.2742 | Patlak Ic (AB) y intercept (rat BT4C glioma cells [2]; Flank tumor average (n = 6)): 1.0521 ± 0.2524 | Patlak Ic (PC) y intercept (rat BT4C glioma cells [2]; Flank tumor average (n = 6)): 1.5318 ± 0.3888 | Patlak Ic (AB) y intercept (rat BT4C glioma cells [2]; Neck tumor average (n = 6)): 1.2083 ± 0.1715 | Patlak Ic (PC) y intercept (rat BT4C glioma cells [2]; Neck tumor average (n = 6)): 1.7708 ± 0.2668 | Irreversible uptake rate relative to reversible uptake rates (rat BT4C glioma cells [2]; Patlak versus reversible models): roughly 15 times lower | Patlak Ic (AB) y intercept ([3]; Subject A brain (control)): 0.1654 | Patlak Ic (PC) y intercept ([3]; Subject A brain (control)): 0.2100 | Patlak Ic (AB) y intercept ([3]; Subject A glioma max.): 1.07 | Patlak Ic (PC) y intercept ([3]; Subject A glioma max.): 1.4536 | Patlak Ic (AB) y intercept ([3]; Subject A o.t. glioma): 0.7386 | Patlak Ic (PC) y intercept ([3]; Subject A o.t. glioma): 0.9480 | Patlak Ic (AB) y intercept ([3]; Subject B brain (control)): 0.1316 | Patlak Ic (PC) y intercept ([3]; Subject B brain (control)): 0.1563 | Patlak Ic (AB) y intercept ([3]; Subject B glioma max.): 0.4556 | Patlak Ic (PC) y intercept ([3]; Subject B glioma max.): 0.5434 | Patlak Ic (AB) y intercept ([3]; Subject B o.t. glioma): 0.4687 | Patlak Ic (PC) y intercept ([3]; Subject B o.t. glioma): 0.5996 | AB distribution volume (rat BT4C glioma cells [4]; Bone (femoral condyle) (n = 6)): 5.11 ± 2.19 | PC distribution volume (rat BT4C glioma cells [4]; Bone (femoral condyle) (n = 6)): 13.47 ± 7.70 | Logan DV (AB) distribution volume (rat BT4C glioma cells [4]; [7]): 5.11 ± 2.19 | Logan Ic (AB) y intercept (rat BT4C glioma cells [4]; [7]): -66.36 ± 26.46 | Logan DV (PC) distribution volume (rat BT4C glioma cells [4]; [7]): 13.47 ± 7.70 | Logan IC (PC) y intercept (rat BT4C glioma cells [4]; [7]): -142.79 ± 84.46 | AB distribution volume (rat BT4C glioma cells [4]; Flank muscle (n = 6)): 0.77 ± 0.13 | PC distribution volume (rat BT4C glioma cells [4]; Flank muscle (n = 6)): 1.38 ± 0.23 | Logan DV (AB) distribution volume (rat BT4C glioma cells [4]; Flank muscle average (n = 6)): 0.77 ± 0.13 | Logan Ic (AB) y intercept (rat BT4C glioma cells [4]; Flank muscle average (n = 6)): -15.28 ± 5.34 | Logan DV (PC) distribution volume (rat BT4C glioma cells [4]; Flank muscle average (n = 6)): 1.38 ± 0.23 | Logan IC (PC) y intercept (rat BT4C glioma cells [4]; Flank muscle average (n = 6)): -27.58 ± 7.76 | AB distribution volume (rat BT4C glioma cells [4]; Flank tumor (n = 6)): 1.13 ± 0.09 | PC distribution volume (rat BT4C glioma cells [4]; Flank tumor (n = 6)): 1.96 ± 0.15 | Logan DV (AB) distribution volume (rat BT4C glioma cells [4]; Flank tumor average (n = 6)): 1.13 ± 0.09 | Logan Ic (AB) y intercept (rat BT4C glioma cells [4]; Flank tumor average (n = 6)): -10.31 ± 3.60 | Logan DV (PC) distribution volume (rat BT4C glioma cells [4]; Flank tumor average (n = 6)): 1.96 ± 0.15 | Logan IC (PC) y intercept (rat BT4C glioma cells [4]; Flank tumor average (n = 6)): -19.79 ± 4.89 | AB distribution volume (rat BT4C glioma cells [4]; Neck tumor (n = 6)): 1.21 ± 0.08 | PC distribution volume (rat BT4C glioma cells [4]; Neck tumor (n = 6)): 2.08 ± 0.13 | Logan DV (AB) distribution volume (rat BT4C glioma cells [4]; Neck tumor average (n = 6)): 1.21 ± 0.08 | Logan Ic (AB) y intercept (rat BT4C glioma cells [4]; Neck tumor average (n = 6)): -7.63 ± 2.79 | Logan DV (PC) distribution volume (rat BT4C glioma cells [4]; Neck tumor average (n = 6)): 2.08 ± 0.13 | Logan IC (PC) y intercept (rat BT4C glioma cells [4]; Neck tumor average (n = 6)): -16.47 ± 3.85 | Yokoi K1 (AB) plasma to tissue transport rate (rat BT4C glioma cells [5]; [7]): 0.075 ± 0.013 mL min-1 mL-1 | Yokoi K1/k2 (AB) binding potential (rat BT4C glioma cells [5]; [7]): 5.48 ± 2.21 mL mL-1 | Yokoi k2 (AB) tissue to plasma transport rate (rat BT4C glioma cells [5]; [7]): 0.017 ± 0.012 min⁻¹ | Yokoi K1 (PC) plasma to tissue transport rate (rat BT4C glioma cells [5]; [7]): 0.086 ± 0.015 mL min-1 mL-1 | Yokoi K1/k2 (PC) binding potential (rat BT4C glioma cells [5]; [7]): 37.68 ± 39.62 mL mL-1 | Yokoi k2 (PC) tissue to plasma transport rate (rat BT4C glioma cells [5]; [7]): 0.005 ± 0.006 min⁻¹ | Yokoi K1 (AB) plasma to tissue transport rate (rat BT4C glioma cells [5]; Flank muscle average (n = 6)): 0.057 ± 0.023 mL min-1 mL-1 | Yokoi K1/k2 (AB) binding potential (rat BT4C glioma cells [5]; Flank muscle average (n = 6)): 0.76 ± 0.13 mL mL-1 | Yokoi k2 (AB) tissue to plasma transport rate (rat BT4C glioma cells [5]; Flank muscle average (n = 6)): 0.074 ± 0.028 min⁻¹ | Yokoi K1 (PC) plasma to tissue transport rate (rat BT4C glioma cells [5]; Flank muscle average (n = 6)): 0.054 ± 0.017 mL min-1 mL-1 | Yokoi K1/k2 (PC) binding potential (rat BT4C glioma cells [5]; Flank muscle average (n = 6)): 1.37 ± 0.23 mL mL-1 | Yokoi k2 (PC) tissue to plasma transport rate (rat BT4C glioma cells [5]; Flank muscle average (n = 6)): 0.039 ± 0.013 min⁻¹ | Yokoi K1 (AB) plasma to tissue transport rate (rat BT4C glioma cells [5]; Flank tumor average (n = 6)): 0.121 ± 0.039 mL min-1 mL-1 | Yokoi K1/k2 (AB) binding potential (rat BT4C glioma cells [5]; Flank tumor average (n = 6)): 1.13 ± 0.09 mL mL-1 | Yokoi k2 (AB) tissue to plasma transport rate (rat BT4C glioma cells [5]; Flank tumor average (n = 6)): 0.106 ± 0.029 min⁻¹ | Yokoi K1 (PC) plasma to tissue transport rate (rat BT4C glioma cells [5]; Flank tumor average (n = 6)): 0.105 ± 0.027 mL min-1 mL-1 | Yokoi K1/k2 (PC) binding potential (rat BT4C glioma cells [5]; Flank tumor average (n = 6)): 1.95 ± 0.15 mL mL-1 | Yokoi k2 (PC) tissue to plasma transport rate (rat BT4C glioma cells [5]; Flank tumor average (n = 6)): 0.054 ± 0.011 min⁻¹ | Yokoi K1 (AB) plasma to tissue transport rate (rat BT4C glioma cells [5]; Neck tumor average (n = 6)): 0.179 ± 0.076 mL min-1 mL-1 | Yokoi K1/k2 (AB) binding potential (rat BT4C glioma cells [5]; Neck tumor average (n = 6)): 1.21 ± 0.08 mL mL-1 | Yokoi k2 (AB) tissue to plasma transport rate (rat BT4C glioma cells [5]; Neck tumor average (n = 6)): 0.146 ± 0.056 min⁻¹ | Yokoi K1 (PC) plasma to tissue transport rate (rat BT4C glioma cells [5]; Neck tumor average (n = 6)): 0.135 ± 0.039 mL min-1 mL-1 | Yokoi K1/k2 (PC) binding potential (rat BT4C glioma cells [5]; Neck tumor average (n = 6)): 2.08 ± 0.13 mL mL-1 | Yokoi k2 (PC) tissue to plasma transport rate (rat BT4C glioma cells [5]; Neck tumor average (n = 6)): 0.065 ± 0.016 min⁻¹ | Pancreas uptake relative to tumor (rat BT4C glioma cells [6]): 6 fold
SMILES: NC(=O)[C@H]([18F])C[C@H](N)C(=O)O [[^18F]FGln, (2S, 4R)-4-[^18F]fluoroglutamine]
